US6602708B1, “Neural cultures” (CellFactors plc, priority 1994, dated 2003)

Legend:
raphe clone 1 cells = raphe clone 1 cells at non-permissive temperature (39° C.), survival and differentiation; assay type: cell-based, rat; conditions: plus fibroblast growth factor, up to 72 h
Experimental: The above referred to homogeneous population of raphe clone 1 cells can be caused to enter apoptosis using any of the following four methods.
1. Temperature was raised to non-permissive value (39° C.) for up to 72 h, in the presence or absence of fibroblast growth factor or epidermal growth factor. Neural cells developed the ability to take up 5-hydroxytryptophan (5HTP, the precursor of 5HT), 5HT itself, and to decarboxylate 5-hydroxytryptophan to 5HT. […] The 5HT derived from 5HTP was released, although the mechanism of such release is not known.
2. Temperature was raised to non-permissive value (39° C.) for up to 72 h, in the presence of cyclic AMP plus fibroblast growth factor.
3. Temperature was raised to non-permissive value (39° C.) for up to 96 h, in the presence of retinoic acid (10 μM) plus fibroblast growth factor.

low-affinity carrier = test: serotonin uptake by clone 921203-6 cells after shift to 39° C.; assay type: cell-based, rat; conditions: clone 921203-6, 39° C.
Experimental: Mesencephalic and medullary raphe neural cells from the E12-E13 rat embryo (E1=day of conception) were immortalised using a temperature-sensitive oncogene as described earlier (Stringer et al., 1994). Under permissive conditions, ie in the presence of 5 ng/ml of fibroblast growth factor (FGF)(Sigma, product no. F3391) and at 33° C., the immortalised raphe precursor cells replicate. […] No calcium channels were demonstrable using patch clamp analysis.

SMILES | extent of fibre development (raphe clone 1 cells) | Km (low-affinity carrier) [µM]
Nc1ncnc2c1ncn2[C@@H]1O[C@@H]2COP(=O)(O)O[C@H]2[C@H]1O [cyclic AMP] | increase | 
NCCc1c[nH]c2ccc(O)cc12 [serotonin, 5-hydroxytryptamine] |  | 56
